Test results taken from the NIST ThermoML archive (doi:10.1016/j.jct.2008.07.011).

Assay: osmotic coefficient (dimensionless); mn = molality of the nth substance listed, in mol/kg
Conditions: Liquid, vapor pressure osmometry

CCC[n+]1ccn(C)c1.[Br-] [1-methyl-3-propylimidazolium bromide] + O
osmotic coefficient
Conditions	298.15 K	308.15 K	318.15 K	328.15 K
m1 = 0.0071	0.942	0.928	0.961	0.947
m1 = 0.0141	0.917	0.925	0.951	0.95
m1 = 0.0243	0.903	0.902	0.925	0.924
m1 = 0.0338	0.894	0.904	0.92	0.926
m1 = 0.0462	0.89	0.892	0.91	0.91
m1 = 0.0667	0.865	0.875	0.898	0.896
m1 = 0.0898	0.855	0.864	0.874	0.875
m1 = 0.1081	0.839	0.851	0.867	0.864
m1 = 0.1529	0.82	0.835	0.857	0.851
m1 = 0.194	0.807	0.816	0.836	0.842
m1 = 0.2403	0.798	0.802	0.812	0.818
m1 = 0.3018	0.783	0.792	0.805	0.813
m1 = 0.3677	0.762	0.772	0.793	0.794
m1 = 0.4338	0.755	0.761	0.776	0.787
m1 = 0.5359	0.742	0.749	0.753	0.76
m1 = 0.8595	0.706	0.72	0.728	0.735
m1 = 1.029	0.702	0.714	0.717	0.724
m1 = 1.604	0.674	0.696	0.702	0.704
m1 = 2.104	0.676	0.69	0.694	0.701
m1 = 2.705	0.671	0.683	0.701	0.709

CCCCCn1cc[n+](C)c1.[Br-] [1-pentyl-3-methylimidazolium bromide] + O
osmotic coefficient
Conditions	298.15 K	308.15 K	318.15 K	328.15 K
m1 = 0.0179	0.911	0.987	0.94	1.01
m1 = 0.025	0.925	0.964	0.924	0.996
m1 = 0.0301	0.906	0.933	0.912	0.982
m1 = 0.0518	0.878	0.892	0.895	0.955
m1 = 0.0722	0.861	0.872	0.882	0.92
m1 = 0.0904	0.852	0.856	0.871	0.91
m1 = 0.1155	0.826	0.843	0.857	0.852
m1 = 0.1697	0.808	0.811	0.831	0.843
m1 = 0.2113	0.793	0.798	0.816	0.827
m1 = 0.2308	0.785	0.786	0.813	0.811
m1 = 0.3311	0.745	0.76	0.776	0.782
m1 = 0.3787	0.726	0.745	0.762	0.766
m1 = 0.4716	0.704	0.727	0.749	0.754
m1 = 0.5627	0.694	0.709	0.72	0.734
m1 = 0.6532	0.679	0.689	0.697	0.706
m1 = 0.7246	0.669	0.682	0.692	0.697
m1 = 0.8353	0.657	0.666	0.68	0.681
m1 = 1.026	0.618	0.637	0.632	0.649
m1 = 1.509	0.583	0.588	0.594	0.608
m1 = 2.005	0.561	0.565	0.568	0.594

CCCCCCn1cc[n+](C)c1.[Br-] [3-hexyl-1-methyl-1H-imidazolium bromide] + O
osmotic coefficient
Conditions	298.15 K	308.15 K	318.15 K	328.15 K
m1 = 0.0155	0.876	0.889	0.91	0.935
m1 = 0.021	0.869	0.87	0.876	0.911
m1 = 0.0305	0.854	0.858	0.866	0.869
m1 = 0.0467	0.835	0.838	0.848	0.861
m1 = 0.0633	0.815	0.811	0.816	0.821
m1 = 0.0819	0.761	0.763	0.8	0.815
m1 = 0.121	0.741	0.742	0.775	0.79
m1 = 0.158	0.703	0.732	0.754	0.76
m1 = 0.1845	0.708	0.727	0.742	0.75
m1 = 0.2503	0.67	0.69	0.702	0.719
m1 = 0.3312	0.65	0.659	0.672	0.67
m1 = 0.4111	0.602	0.605	0.625	0.63
m1 = 0.5114	0.554	0.585	0.589	0.592
m1 = 0.5898	0.54	0.546	0.555	0.569
m1 = 0.6829	0.517	0.513	0.537	0.544
m1 = 0.7428	0.488	0.489	0.509	0.514
m1 = 1.119	0.384	0.397	0.413	0.429
m1 = 1.686	0.312	0.322	0.352	0.362
m1 = 2.398	0.271	0.292	0.309	0.328
